# Laboratory results from US20210315799A1, “Composition for Promoting Differentiation or Proliferation of Human Adipose-Derived Stem Cell” (LG Household & Health Care Ltd., priority 2018, published 2021).
# Legend:
# Assay type in all cases: cell-based
# [1] = system: human adipose-derived stem cells; experiment: Quantified differentiation: eluted Oil Red O, absorbance at 490 nm (Example 3); conditions: Oil Red O eluted with isopropanol, absorbance 490 nm; compared with negative control (differentiation medium only); FIG. 2
# Experimental: (§1) Human adipose-derived stem cells were purchased from Lonza, Inc. (Walkersvile, Md., USA) and cultured according to guidelines of Lonza, Inc. Differentiation into adipose cells was evaluated using a differentiation medium recommended by Lonza, Inc. As a positive control, the cells were treated with 1 μM rosiglitazone together with the differentiation medium. In order to induce differentiation of human adipose-derived stem cells into adipose cells, a cell culture solution was removed at 3 to 5 days after cell culturing was initiated, and the cells were treated with formononetin, acetyl mandelic acid, Magnoliae cortex extract, and the positive control for 14 days.
# (§2) At 14 days after differentiation was initiated, the cell culture solution was removed, and the cells were washed with a phosphate buffer (DPBS) and immobilized using 10% formalin. The immobilized cells were observed using a microscope after staining fats and lipids contained in the adipose cells with Oil Red 0.
# Cultured human adipose-derived stem cells were treated with 12 types of the compounds including formononetin and a Magnoliae cortex extract and an Aloe vera extract in the same manner as in Example 2. Stained Oil Red 0 was eluted using a 100% isopropanol solution, and absorbance thereof was measured at a wavelength of 490 nm and quantified. […] It was confirmed that the substances according to the present invention promoted differentiation of human adipose-derived stem cells into adipose cells and effectively promoted differentiation into adipose cells compared to non-differentiation substances such as kaempferol. Thus, the compositions including the substances according to the present invention may be used for anti-aging purposes to enhance skin elasticity and reduce skin wrinkles by promoting differentiation of human adipose-derived stem cells and increasing the number of subcutaneous fat cells.
# [2] = system: human adipose-derived stem cells; experiment: Cell activity / proliferation by CCK-8 kit (Example 6); conditions: for cell activity rates / proliferation of human adipose-derived stem cells compared to a control: FIG. 6; for concentration at which the substance showed the highest cell activity: tested at 0.2 ppm, 2 ppm and 20 ppm
# Experimental: Human adipose-derived stem cells were purchased from Lonza, Inc. (Walkersville, Md., USA) and incubated in a CO2 incubator at 37° C. under 5% CO2 conditions. After the human adipose-derived stem cells were treated with 0.2 ppm, 2 ppm, and 20 ppm, respectively, cell activities thereof were identified using a CCK-8 kit (Dojindo).
# [3] = system: human adipose-derived stem cells; experiment: Oil Red O staining of differentiated adipose cells, observed by microscope (Example 2); conditions: treated 14 days; compared with negative control treated only with differentiation medium; FIG. 1
# Experimental: as §1, §2
compound,measurement,setting,value
"O=c1c(O)c(-c2ccc(O)cc2)oc2cc(O)cc(O)c12 [kaempferol, reference compound]",relative differentiation rate of human adipose-derived stem cells into adipose cells,[1],non-differentiation
"O=C(O)/C=C/c1cccc(O)c1 [hydroxycinnamic acid, m-coumaric acid]",relative differentiation rate of human adipose-derived stem cells into adipose cells,[1],effectively promote differentiation
terpineol,cell activity rates / proliferation of human adipose-derived stem cells compared to a control,[2],significantly increased
same,concentration at which the substance showed the highest cell activity,[2],20 ppm
COc1ccc(-c2coc3cc(O)ccc3c2=O)cc1 [formononetin],effects on differentiation of human adipose-derived stem cells into adipose cells (Oil Red O staining),[3],superior to those of the negative control
same,relative differentiation rate of human adipose-derived stem cells into adipose cells,[1],effectively promote differentiation
O=C(O)CCCC[C@@H]1CCSS1 (racemic) [thioctic acid],cell activity rates / proliferation of human adipose-derived stem cells compared to a control,[2],significantly increased
same,concentration at which the substance showed the highest cell activity,[2],20 ppm
CCCCCCCCCCCCCCCC(N)=O [palmitamide],relative differentiation rate of human adipose-derived stem cells into adipose cells,[1],effectively promote differentiation
Cc1cc2nc3c(=O)[nH]c(=O)nc-3n(C[C@H](O)[C@H](O)[C@H](O)COP(=O)([O-])O)c2cc1C.[Na+] [sodium riboflavin phosphate],cell activity rates / proliferation of human adipose-derived stem cells compared to a control,[2],significantly increased
same,concentration at which the substance showed the highest cell activity,[2],20 ppm
"CC(=O)OC(C(=O)O)c1ccccc1 (stereo not shown) [acetyl mandelic acid, O-acetyl mandelic acid]",effects on differentiation of human adipose-derived stem cells into adipose cells (Oil Red O staining),[3],superior to those of the negative control
same,relative differentiation rate of human adipose-derived stem cells into adipose cells,[1],effectively promote differentiation
O=c1cccccc1O [tropolone],cell activity rates / proliferation of human adipose-derived stem cells compared to a control,[2],significantly increased
same,concentration at which the substance showed the highest cell activity,[2],2 ppm
CC1=CC(=O)c2ccccc2C1=O [menadione],cell activity rates / proliferation of human adipose-derived stem cells compared to a control,[2],significantly increased
same,concentration at which the substance showed the highest cell activity,[2],0.2 ppm
O=C(O)c1cc(O)c(O)c(O)c1 [gallic acid],cell activity rates / proliferation of human adipose-derived stem cells compared to a control,[2],significantly increased
same,concentration at which the substance showed the highest cell activity,[2],20 ppm
CC(C)c1cc2c(c(O)c1O)[C@@]1(C(=O)O)CCCC(C)(C)[C@@H]1CC2 [carnosic acid],relative differentiation rate of human adipose-derived stem cells into adipose cells,[1],effectively promote differentiation
same,cell activity rates / proliferation of human adipose-derived stem cells compared to a control,[2],significantly increased
same,concentration at which the substance showed the highest cell activity,[2],2 ppm
Cc1cc(O)c2c(c1)C(=O)c1cc(O)cc(O)c1C2=O [emodin],relative differentiation rate of human adipose-derived stem cells into adipose cells,[1],effectively promote differentiation
laccaic acid,relative differentiation rate of human adipose-derived stem cells into adipose cells,[1],effectively promote differentiation
CC(=O)CCc1ccc(O)cc1 [raspberry ketone],cell activity rates / proliferation of human adipose-derived stem cells compared to a control,[2],significantly increased
same,concentration at which the substance showed the highest cell activity,[2],20 ppm
"CC1=C[C@H](O)CC(C)(C)[C@H]1/C=C/C(C)=C/C=C/C(C)=C/C=C/C=C(C)/C=C/C=C(C)/C=C/C1=C(C)C[C@@H](O)CC1(C)C [xanthophyll, lutein]",relative differentiation rate of human adipose-derived stem cells into adipose cells,[1],effectively promote differentiation
same,cell activity rates / proliferation of human adipose-derived stem cells compared to a control,[2],significantly increased
same,concentration at which the substance showed the highest cell activity,[2],20 ppm
CC(C)=CCC[C@@H](C)[C@H]1CC[C@@]2(C)C3=C(CC[C@]12C)[C@@]1(C)CC[C@H](O)C(C)(C)[C@@H]1CC3 [lanosterol],cell activity rates / proliferation of human adipose-derived stem cells compared to a control,[2],significantly increased
same,concentration at which the substance showed the highest cell activity,[2],2 ppm
Cc1cc(S(=O)(=O)[O-])c2c(C)ccc(C(C)C)cc1-2.[Na+] [sodium guaiazulene sulfonate],relative differentiation rate of human adipose-derived stem cells into adipose cells,[1],effectively promote differentiation
"COC1=C(OC)C(=O)C(C/C=C(\C)CC/C=C(\C)CC/C=C(\C)CC/C=C(\C)CC/C=C(\C)CC/C=C(\C)CC/C=C(\C)CC/C=C(\C)CC/C=C(\C)CCC=C(C)C)=C(C)C1=O [ubiquinone, ubiquinone 10]",relative differentiation rate of human adipose-derived stem cells into adipose cells,[1],effectively promote differentiation
O=C(O)/C=C/c1ccc(O)c(O)c1 [caffeic acid],relative differentiation rate of human adipose-derived stem cells into adipose cells,[1],effectively promote differentiation
same,cell activity rates / proliferation of human adipose-derived stem cells compared to a control,[2],significantly increased
same,concentration at which the substance showed the highest cell activity,[2],20 ppm
"Cc1cc2nc3c(=O)[nH]c(=O)nc-3n(C[C@H](O)[C@H](O)[C@H](O)CO)c2cc1C [lactoflavin, riboflavin]",cell activity rates / proliferation of human adipose-derived stem cells compared to a control,[2],significantly increased
same,concentration at which the substance showed the highest cell activity,[2],20 ppm
CC1(C)[C@@H](O)CC[C@]2(C)[C@H]3C(=O)C=C4[C@@H]5C[C@@](C)(C(=O)O)CC[C@]5(C)CC[C@@]4(C)[C@]3(C)CC[C@@H]12 [glycyrrhetinic acid],cell activity rates / proliferation of human adipose-derived stem cells compared to a control,[2],significantly increased
same,concentration at which the substance showed the highest cell activity,[2],20 ppm
